“And” between values parts separate entries of the source, which are not always exact repeats. Equal entries are not always repeated. “Also recorded” adds a separate entry of the source.
How the values were obtained:
[1] = CIRT; cited from earlier work
[2] = system: patients recruited within 30 days after a myocardial infarction; details: in vivo
[3] = system: High-sensitivity C-reactive protein; details: in vivo
[4] = system: patients with stable coronary disease; details: in vivo; cited from earlier work
[5] = system: white-cell count; details: in vivo
[6] = system: patients recruited within 30 days after a myocardial infarction; details: human, in vivo

For `CN(Cc1cnc2nc(N)nc(N)c2n1)c1ccc(C(=O)N[C@@H](CCC(=O)O)C(=O)O)cc1` [methotrexate], the “cardiovascular outcomes and plasma markers of inflammation (in words)” value [1] is listed as “did not affect cardiovascular outcomes or plasma markers of inflammation”.

For `COc1cc2c(c(OC)c1OC)-c1ccc(OC)c(=O)cc1[C@@H](NC(C)=O)CC2` [Colchicine], the Anemia [2] was 14 (0.6) number of patients (percent), the “Any serious adverse event” value [2] was 383 (16.4) number of patients (percent) and the “At least one gastrointestinal adverse event” value [2] was 17.5%. The “Diarrhea reported, % of the patients” value [2] was 9.7%, the Gastrointestinal hemorrhage [2] was 7 (0.3) number of patients (percent) and the “Gastrointestinal serious adverse event” value [2] was 46 (2.0) number of patients (percent). For the same molecule, the “Hospitalization for heart failure” value [2] was 25 (1.1) number of patients (percent), the “Infection as a serious adverse event, % of the patients” value [2] was 2.2% and the “Infection serious adverse event” value [2] was 51 (2.2) number of patients (percent). For the same molecule, the Leukopenia [2] was 2 (0.1) number of patients (percent), the Nausea adverse event [2] was 43 (1.8) number of patients (percent) and the “Pneumonia reported as a serious adverse event, % of the patients” value [2] was 0.9%. For the same molecule, the “Pneumonia serious adverse event” value [2] was 21 (0.9) number of patients (percent), the “Septic shock serious adverse event” value [2] was 2 (0.1) number of patients (percent) and the Thrombocytopenia [2] was 3 (0.1) number of patients (percent). For the same molecule, the “incidence of adverse events considered to be related to trial drug” value [2] was 16.0%, the “incidence of septic shock (in words)” value [2] was “did not increase the incidence of septic shock” and the “nausea, % of the patients” value [2] was 1.8%. The “overall incidence of serious adverse events” value [2] was 16.4%, the “serious adverse event of myopathy (in words)” value [2] was “no serious adverse event of myopathy linked to colchicine” and the “trial regimen discontinued, % of the patients” value [2] was 18.4%. The “Hs-C reactive protein, 6 months, geometric mean (IQR)” value [3] was 1.37 (0.75, 2.13) mg/L, the “Hs-C reactive protein, Adjusted GM percent change (95% CI)” value [3] was -70.0% and -70.0 (-74.6, -64.5) % and the “Hs-C reactive protein, Placebo-adjusted GM percent change (95% CI)” value [3] was -10.1% and -10.1 (-28.6, 13.4) %. The “Hs-C reactive protein, Randomization, geometric mean (IQR)” value [3] was 4.27 (2.12, 7.22) mg/L, the “reduction in the C-reactive protein level” value [3] was > 65% and the “cardiovascular events (in words)” value [4] was “fewer cardiovascular events”. For the same molecule, the “Circulating lymphocytes, 12 months, geometric mean (IQR)” value [5] was 1.83 (1.50, 2.44) 10^3/µL, the “Circulating lymphocytes, Adjusted GM percent change (95% CI)” value [5] was 1.80 (-0.46, 4.11) % and the “Circulating lymphocytes, Placebo-adjusted GM percent change (95% CI)” value [5] was 1.10 (-2.06, 4.36) %. For the same molecule, the “Circulating lymphocytes, Randomization, geometric mean (IQR)” value [5] was 1.79 (1.40, 2.40) 10^3/µL, the “Circulating neutrophils, 12 months, geometric mean (IQR)” value [5] was 3.95 (3.27, 5.08) 10^3/µL and the “Circulating neutrophils, Adjusted GM percent change (95% CI)” value [5] was -27.63 (-29.48, -25.73) %. The “Circulating neutrophils, Placebo-adjusted GM percent change (95% CI)” value [5] was 0.45 (-3.28, 4.32) %, the “Circulating neutrophils, Randomization, geometric mean (IQR)” value [5] was 5.45 (4.36, 7.15) 10^3/µL and the “Total white blood cell count, 12 months, geometric mean (IQR)” value [5] was 6.95 (5.99, 8.30) 10^3/µL. The “Total white blood cell count, Adjusted GM percent change (95% CI)” value [5] was -18.8% and -18.81 (-20.12, -17.47) %, the “Total white blood cell count, Placebo-adjusted GM percent change (95% CI)” value [5] was 0.3% and 0.26 (-2.15, 2.72) % and the “Total white blood cell count, Randomization, geometric mean (IQR)” value [5] was 8.54 (7.10, 10.40) 10^3/µL. For the same molecule, the “Adjusted Hazard Ratio (95% CI), time to first primary endpoint” value [6] was 0.78 (0.62-0.98), the Death [6] was 43 (1.8) number (percent) and the “Death from cardiovascular causes” value [6] was 20 (0.8) number (percent). For the same molecule, the “Deep venous thrombosis or pulmonary embolus” value [6] was 10 (0.4) number (percent), the “Hazard Ratio (95% CI), CV death” value [6] was 0.83 (0.45-1.53) and the “Hazard Ratio (95% CI), Death” value [6] was 0.98 (0.64–1.49). For the same molecule, the “Hazard Ratio (95% CI), Deep venous thrombosis or pulmonary embolus” value [6] was 1.43 (0.54–3.75), the “Hazard Ratio (95% CI), MI” value [6] was 0.84 (0.62-1.14) and the “Hazard Ratio (95% CI), Resuscitated cardiac arrest” value [6] was 1.00 (0.29-3.46). For the same molecule, the “Hazard Ratio (95% CI), Stroke” value [6] was 0.26 (0.10-0.71), the “Hazard Ratio (95% CI), Urgent hospitalization for angina requiring revascularization” value [6] was 0.47 (0.28-0.78) and the “Hazard Ratio (95% CI), WLW model, 1st Event” value [6] was 0.77 (0.61; 0.96). The “Hazard Ratio (95% CI), WLW model, 2nd Event” value [6] was 0.73 (0.48; 1.11), the “Hazard Ratio (95% CI), WLW model, 3rd Event” value [6] was 0.64 (0.37; 1.10) and the “Hazard Ratio (95% CI), WLW model, Average” value [6] was 0.77 (0.61; 0.96). The “Hazard Ratio (95% CI), total primary endpoint events, Andersen-Gill model” value [6] was 0.69 (0.54; 0.88), the MI [6] was 77 (3.4%) no. (%) and the Myocardial infarction [6] was 89 (3.8) number (percent). For the same molecule, the “Number of primary endpoint events per patient: 0 (number of patients)” value [6] was 2235, the “Number of primary endpoint events per patient: 1 (number of patients)” value [6] was 111 and the “Number of primary endpoint events per patient: 2 (number of patients)” value [6] was 18. For the same molecule, the “Number of primary endpoint events per patient: 3 (number of patients)” value [6] was 1, the “Number of primary endpoint events per patient: 4 (number of patients)” value [6] was 1 and the Primary endpoint [6] was 115(5.1%) no. (%). For the same molecule, the “Rate of primary endpoint events per 100 patient-months” value [6] was 0.29 per 100 patient-months, the “Secondary composite end point” value [6] was 111 (4.7) number (percent) and the “Total number of primary endpoint events” value [6] was 154. For the same molecule, the “Urgent hospitalization for angina leading to revascularization” value [6] was 25 (1.1) number (percent), the “Urgent hospitalization for angina requiring revascularization” value [6] was 22 (1.0%) no. (%) and the “ischemic cardiovascular events / primary composite efficacy end point compared with placebo (in words)” value [6] was “significantly lower percentage of patients with ischemic cardiovascular events than placebo; also recorded: statistically significant lower risk of ischemic cardiovascular events than placebo”. The “primary end point occurred in % of the patients” value [6] was 5.5% and 5.1% and the “secondary efficacy end point occurred in % of the patients” value [6] was 4.7%.

From EP3821889A1, “METHODS FOR USING LOW-DOSE […] MYOCARIAL INFARCTION” (Institut de Cardiologie de Montréal, priority 2019, dated 2021)
